Broadly, the Ki is a dissociation constant, usually derived from enzyme kinetics or from competition with a known ligand.

Molecules are shown by their SMILES. Values joined by “and” are separate entries in the source; they are usually repeats but may differ in a detail not shown here. Identical values can stand only once.

For the first assay, the target named is Beta-secretase 1 (Homo sapiens, UniProt P56817). Description: Binding affinity for human brain memapsin 2.
Chain of Beta-secretase 1 (P56817 whole entry): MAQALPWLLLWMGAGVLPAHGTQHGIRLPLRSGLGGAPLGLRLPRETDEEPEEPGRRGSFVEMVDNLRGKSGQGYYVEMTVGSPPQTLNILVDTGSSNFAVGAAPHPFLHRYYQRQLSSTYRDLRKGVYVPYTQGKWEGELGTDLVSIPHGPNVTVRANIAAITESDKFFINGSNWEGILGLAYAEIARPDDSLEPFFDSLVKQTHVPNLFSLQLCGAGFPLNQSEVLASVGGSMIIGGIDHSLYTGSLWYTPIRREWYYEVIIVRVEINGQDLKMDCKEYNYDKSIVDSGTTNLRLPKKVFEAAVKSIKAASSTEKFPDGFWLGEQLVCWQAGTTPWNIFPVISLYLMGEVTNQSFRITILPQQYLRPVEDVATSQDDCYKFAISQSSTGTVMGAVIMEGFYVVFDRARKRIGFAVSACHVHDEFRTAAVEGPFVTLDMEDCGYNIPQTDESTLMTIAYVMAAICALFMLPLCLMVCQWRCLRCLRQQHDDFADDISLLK
Consider `CC(C)C[C@H](NC(=O)[C@@H]1CC(=O)NC/C=C/CCCOC(=O)N[C@@H](C(C)C)C(=O)N1)[C@@H](O)C[C@@H](C)C(=O)N[C@H](C(=O)NCc1ccccc1)C(C)C`, for which the Ki was 14.2 nM and 31 nM.

Regarding `C=CCCCOC(=O)N[C@H](C(=O)N[C@@H](CC(=O)NCC=C)C(=O)N[C@@H](CC(C)C)[C@@H](O)C[C@@H](C)C(=O)N[C@H](C(=O)NCc1ccccc1)C(C)C)C(C)C`, affinity was put at a Ki of 112 nM. In other words, the sub-micromolar range.

In turn, `CC(C)C[C@H](NC(=O)[C@@H]1CC(=O)NC/C=C/COC(=O)N[C@@H](C(C)C)C(=O)N1)[C@@H](O)C[C@@H](C)C(=O)N[C@H](C(=O)NCc1ccccc1)C(C)C` had a Ki of 87.2 nM.

For `CC(C)C[C@H](NC(=O)[C@@H]1CC(=O)NCCCCOC(=O)N[C@@H](C(C)C)C(=O)N1)[C@@H](O)C[C@@H](C)C(=O)N[C@H](C(=O)NCc1ccccc1)C(C)C`, the Ki was 218 nM. This Ki lies about 2.5-fold higher than the previous one.

Turning to `CC(C)C[C@H](NC(=O)[C@@H]1CC(=O)NCCCCCOC(=O)N[C@@H](C(C)C)C(=O)N1)[C@@H](O)C[C@@H](C)C(=O)N[C@H](C(=O)NCc1ccccc1)C(C)C`, the Ki stood at 108 nM.

In turn, `CC(C)C[C@H](NC(=O)[C@@H]1CC(=O)NC/C=C/CCOC(=O)N[C@@H](C(C)C)C(=O)N1)[C@@H](O)C[C@@H](C)C(=O)N[C@H](C(=O)NCc1ccccc1)C(C)C` displayed a Ki of 28.4 nM.

For `C=CCCOC(=O)N[C@H](C(=O)N[C@@H](CC(=O)NCC=C)C(=O)N[C@@H](CC(C)C)[C@@H](O)C[C@@H](C)C(=O)N[C@H](C(=O)NCc1ccccc1)C(C)C)C(C)C`, the Ki turned out to be 61.4 nM.

The target of a further assay is T1, Beta-secretase 2 (Homo sapiens, UniProt Q9Y5Z0).
T1 sequence (Q9Y5Z0 whole entry): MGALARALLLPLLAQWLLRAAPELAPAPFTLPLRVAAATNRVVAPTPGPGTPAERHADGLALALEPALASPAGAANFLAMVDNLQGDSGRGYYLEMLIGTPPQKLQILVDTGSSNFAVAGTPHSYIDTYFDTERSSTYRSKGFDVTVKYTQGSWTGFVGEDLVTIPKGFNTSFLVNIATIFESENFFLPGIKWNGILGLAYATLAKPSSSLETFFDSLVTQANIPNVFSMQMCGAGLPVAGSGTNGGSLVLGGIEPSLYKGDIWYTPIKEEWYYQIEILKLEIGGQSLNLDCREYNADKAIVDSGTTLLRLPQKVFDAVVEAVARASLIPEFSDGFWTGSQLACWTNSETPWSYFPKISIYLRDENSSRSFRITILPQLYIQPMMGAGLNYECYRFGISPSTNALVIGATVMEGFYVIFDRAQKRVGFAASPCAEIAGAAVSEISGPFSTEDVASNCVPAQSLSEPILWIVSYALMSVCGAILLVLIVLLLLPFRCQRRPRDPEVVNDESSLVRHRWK
Description: Binding affinity for human brain memapsin 1.
Consider `CC(C)C[C@H](NC(=O)[C@@H]1CC(=O)NCCCCCCOC(=O)N[C@@H](C(C)C)C(=O)N1)[C@@H](O)C[C@@H](C)C(=O)N[C@H](C(=O)NCc1ccccc1)C(C)C`, for which the Ki was 4.5 nM.

(Values after ChEMBL document CHEMBL1145144, “Structure-based design of cycloamide-urethane-derived novel inhibitors of human brain memapsin 2 (beta-secretase)” (Bioorg Med Chem Lett, 2005).)
